From ChEMBL document CHEMBL1201862, “PubChem BioAssay data set” (2004)
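Briefly, cells in 96-well plates were exposed to five compound concentrations for 48 h, and endpoints were estimated by linear interpolation. The concentration for 50% growth inhibition is given as GI50.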 Calls of active or inactive are those of the source. No stated cut-off is given here; in the data, active = GI50 up to about 1.1 µM and inactive = higher.

Key:
Experiment in all cases: NCI tumour cell line growth inhibition, 48 h
NCI-H522 = test system: NCI-H522
A549 = test system: A549
SW-620 = test system: SW-620
OVCAR-5 = test system: OVCAR-5
SF-295 = test system: SF-295
NCI-H23 = test system: NCI-H23
UACC-62 = test system: UACC-62
SK-MEL-5 = test system: SK-MEL-5
NCI-H226 = test system: NCI-H226
KM12 = test system: KM12
UO-31 = test system: UO-31
SNB-75 = test system: SNB-75
HL-60 = test system: HL-60
Malme-3M = test system: Malme-3M
HT-29 = test system: HT-29
SK-MEL-28 = test system: SK-MEL-28
NCI/ADR-RES = test system: NCI/ADR-RES
PC-3 = test system: PC-3
MDA-MB-435 = test system: MDA-MB-435

Measured: GI50

CC(C)C1(O)C(c2ccccc2)=C(c2ccccc2)C(c2ccccc2)=C1c1ccccc1
inactive: NCI-H522 4.35 µM | A549 6.76 µM | SW-620 6.12 µM | OVCAR-5 17.5 µM | SF-295 12.6 µM | NCI-H23 9.59 µM | UACC-62 7.59 µM | SK-MEL-5 10.6 µM | NCI-H226 7.26 µM | KM12 4.9 µM | UO-31 2.46 µM | SNB-75 12.3 µM | HL-60 2.65 µM | Malme-3M 10.4 µM | HT-29 4.26 µM

COc1ccc(/N=c2\ssc3c(=S)ssc23)cc1
inactive: NCI-H522 13.9 µM | A549 31.1 µM | SW-620 15.3 µM | SK-MEL-28 25.3 µM | OVCAR-5 30.2 µM | SF-295 53.3 µM | NCI-H23 34.5 µM | UACC-62 20.2 µM | SK-MEL-5 19.4 µM | NCI-H226 > 100 µM | KM12 62.7 µM | SNB-75 19.4 µM | HL-60 4.09 µM | Malme-3M 34.9 µM

COc1cc([C@@H]2c3cc4c(cc3[C@H](OC3OC5COC(C(C)C)OC5C(O)C3O)C3COC(=O)[C@@H]32)OCO4)cc(OC)c1O (stereo partly specified)
inactive: NCI/ADR-RES 9.38 µM | NCI-H522 14 µM | A549 8.67 µM | SW-620 6.53 µM | OVCAR-5 12.4 µM | SF-295 8.22 µM | NCI-H23 4.03 µM | UACC-62 11.1 µM | SK-MEL-5 7.33 µM | NCI-H226 5.26 µM | KM12 16.1 µM | PC-3 4.08 µM | UO-31 10.2 µM | MDA-MB-435 4.58 µM | HL-60 1.99 µM | Malme-3M 16.6 µM | HT-29 2.97 µM

CCOC(=O)C(C)(NC(=O)c1ccc(NCc2ccc3nc(NC(=O)c4ccccc4)nc(NC(=O)c4ccccc4)c3c2)cc1)C(=O)OCC
inactive: NCI-H522 13.4 µM | A549 12.2 µM | SW-620 11.7 µM | SK-MEL-28 8.18 µM | OVCAR-5 > 100 µM | SF-295 6.79 µM | NCI-H23 9.86 µM | UACC-62 8.49 µM | SK-MEL-5 7.28 µM | NCI-H226 10.1 µM | UO-31 18.1 µM | SNB-75 3.4 µM | HL-60 > 100 µM | Malme-3M 15 µM | HT-29 13.3 µM

COc1ccc(OCC(=O)O)c(C(=O)CCC(=O)O)c1
inactive: NCI-H522 > 100 µM | A549 > 100 µM | SW-620 > 100 µM | SK-MEL-28 > 100 µM | OVCAR-5 > 100 µM | SF-295 > 100 µM | NCI-H23 > 100 µM | UACC-62 > 10 µM | SK-MEL-5 > 100 µM | NCI-H226 83.8 µM | KM12 > 100 µM | UO-31 > 100 µM | SNB-75 71.8 µM | HL-60 > 100 µM | Malme-3M > 100 µM | HT-29 > 100 µM

CC(C)c1cc2c(O)c(c1)Cc1cc(C(C)C)cc(c1O)Cc1cc(C(C)C)cc(c1O)Cc1cc(C(C)C)cc(c1O)C2
inactive: NCI-H522 > 100 µM | A549 > 100 µM | SW-620 > 100 µM | OVCAR-5 > 100 µM | SF-295 > 100 µM | NCI-H23 > 100 µM | UACC-62 > 100 µM | SK-MEL-5 > 100 µM | NCI-H226 > 100 µM | KM12 > 100 µM | UO-31 > 100 µM | SNB-75 > 100 µM | HL-60 > 100 µM | Malme-3M > 100 µM | HT-29 > 100 µM

O=C1Nc2ccccc2C1(O)C/C(=N/O)c1ccc2ccccc2c1 (stereo unspecified)
inactive: NCI-H522 > 100 µM | A549 > 100 µM | SW-620 > 100 µM | SK-MEL-28 > 100 µM | OVCAR-5 > 100 µM | SF-295 > 100 µM | NCI-H23 71.9 µM | NCI-H226 > 100 µM | KM12 > 100 µM | UO-31 75.9 µM | SNB-75 28.6 µM | HL-60 41.8 µM | Malme-3M > 100 µM | HT-29 > 100 µM

NCCCC(N)(C(=O)O)C(F)F (stereo unspecified) [EFLORNITHINE]
inactive: NCI/ADR-RES > 5000 µM | NCI-H522 > 5000 µM | A549 > 5000 µM | SW-620 > 5000 µM | SK-MEL-28 > 5000 µM | SF-295 2270 µM | NCI-H23 > 5000 µM | UACC-62 > 5000 µM | SK-MEL-5 > 5000 µM | NCI-H226 > 5000 µM | KM12 > 5000 µM | UO-31 > 5000 µM | SNB-75 2340 µM | HL-60 > 3910 µM | Malme-3M > 5000 µM | HT-29 > 2790 µM

COc1cccc(SSc2cccc(OC)c2C(=O)O)c1C(=O)O
inactive: NCI-H522 > 100 µM | A549 > 100 µM | SW-620 > 100 µM | SK-MEL-28 > 100 µM | OVCAR-5 > 100 µM | SF-295 > 100 µM | NCI-H23 > 100 µM | UACC-62 > 100 µM | SK-MEL-5 > 100 µM | NCI-H226 > 100 µM | KM12 > 100 µM | UO-31 > 100 µM | SNB-75 > 100 µM | HL-60 > 100 µM | Malme-3M > 100 µM | HT-29 > 100 µM

COc1ccc(S(=O)(=O)N(C)CC(=O)O)cc1
inactive: NCI-H522 > 100 µM | A549 > 100 µM | SW-620 > 100 µM | SK-MEL-28 > 100 µM | OVCAR-5 > 100 µM | SF-295 > 100 µM | NCI-H23 > 100 µM | UACC-62 > 100 µM | SK-MEL-5 > 100 µM | NCI-H226 > 100 µM | KM12 > 100 µM | UO-31 > 100 µM | SNB-75 > 100 µM | HL-60 > 100 µM | Malme-3M > 100 µM | HT-29 > 100 µM

CC(=O)Nc1cc(N(CCOS(C)(=O)=O)CCOS(C)(=O)=O)ccc1N=O
inactive: NCI-H522 > 100 µM | A549 > 100 µM | SW-620 > 100 µM | SK-MEL-28 > 100 µM | OVCAR-5 > 100 µM | SF-295 > 100 µM | NCI-H23 > 100 µM | UACC-62 > 100 µM | SK-MEL-5 > 100 µM | NCI-H226 > 100 µM | KM12 > 100 µM | UO-31 > 100 µM | SNB-75 > 100 µM | HL-60 > 100 µM | Malme-3M > 100 µM | HT-29 > 100 µM

Cc1cc(NC(=O)C2C3C=CC(O3)C2C(=O)O)no1 (stereo unspecified)
inactive: NCI-H522 > 100 µM | A549 34.8 µM | SW-620 1.5 µM | SK-MEL-28 97.7 µM | OVCAR-5 > 100 µM | SF-295 > 100 µM | NCI-H23 > 100 µM | UACC-62 > 100 µM | SK-MEL-5 > 100 µM | NCI-H226 > 100 µM | UO-31 > 100 µM | SNB-75 > 100 µM | HL-60 23.5 µM | Malme-3M > 100 µM | HT-29 34.6 µM

COC(=O)C(=O)C(C(=O)OC)C(=O)C(=O)Nc1c(C)cccc1C (stereo unspecified)
inactive: NCI-H522 97.5 µM | A549 > 100 µM | SW-620 > 100 µM | SK-MEL-28 > 100 µM | OVCAR-5 > 100 µM | SF-295 > 100 µM | NCI-H23 > 100 µM | UACC-62 > 100 µM | SK-MEL-5 > 100 µM | NCI-H226 > 100 µM | KM12 > 100 µM | UO-31 > 100 µM | SNB-75 > 100 µM | HL-60 > 100 µM | Malme-3M > 100 µM | HT-29 > 100 µM
